We go through one compound from patent US20220195389A1, “METHODS OF IMPROVING THE LONGEVITY OF IMMUNE CELLS” (University of Houston System, priority 2019, published 2022).

The subject of the data set is T cells. Briefly: T-cell viability after incubation with compound C. Type of data set: cell-based, human. Conditions: 10 μM dorsomorphin, 6-24 hours. As to the method: T cells were incubated with 10 μM dorsomorphin (Sigma Aldrich) for a period of 6-24 hours. The T cells were subsequently used for either motility assays or functional profiling using TIMING assays.

Regarding `c1cc(-c2cnn3cc(-c4ccc(OCCN5CCCCC5)cc4)cnc23)ccn1` [CC, dorsomorphin], the “impact on T-cell viability” value is recorded as “did not have an impact”.
